Publication PMC4225485, “The PHD1 finger of KDM5B recognizes unmodified H3K4 during the demethylation of histone H3K4me2/3 by KDM5B” (Protein & Cell, 2014)

Columns and labels:
KDM5B-PHD1-L325A = biological target: T1, KDM5B-PHD1-L325A (Homo sapiens, UniProt Q9UGL1, L325A); experiment: ITC binding, PHD1 L325A mutant
T1 construct: PHDKDM5B (residues 306–360 aa); GST (N, cleaved yes); made in house
Description: (§1) A similar PHDKDM5B construct was used for the sample required in the NMR experiments. ^13C- and ^15N-labeled PHDKDM5B were prepared in M9 medium. Site-directed mutagenesis was performed using a QuikChange site-directed mutagenesis kit (Stratagene Inc. La Jolla, California, U.S.A). All of the DNA constructs were sequenced, and the molecular weights of the recombinant proteins were verified by mass spectrometry (MALDI).
(§2) To investigate whether the PHD1KDM5B finger and its mutants interact with unmodified or methylated H3K4 or H3K4mutants, the binding affinities of PHD1KDM5B or its mutants to H3 peptides were studied. An ITC-200 microcalorimeter (GE Healthcare) was used with a buffer containing 20 mmol/L Tris, 150 mmol/L NaCl, and 1% Triton X-100, pH 7.5 at 25°C. The reference titration of small molecules in the buffer was subtracted from the experimental data, and the data were fitted using the Origin 7.0 (OriginLab Corporation) software.

KDM5B-PHD1-L324A = biological target: T2, KDM5B-PHD1-L324A (Homo sapiens, UniProt Q9UGL1, L324A); experiment: ITC binding, PHD1 L324A mutant; settings: Table S1, pH 7.5, 25°C
T2 construct: PHDKDM5B (residues 306–360 aa); GST (N, cleaved yes); made in house
Description: as §1, §2

KDM5B-PHD1-L309A = biological target: T3, KDM5B-PHD1-L309A (Homo sapiens, UniProt Q9UGL1, L309A); experiment: ITC binding, PHD1 L309A mutant; settings: Table S1, pH 7.5, 25°C
T3 construct: PHDKDM5B (residues 306–360 aa); GST (N, cleaved yes); made in house
Description: as §1, §2

KDM5B-PHD1-Y334A = biological target: T4, KDM5B-PHD1-Y334A (Homo sapiens, UniProt Q9UGL1, Y334A); experiment: ITC binding, PHD1 Y334A mutant; settings: Table S1, pH 7.5, 25°C
T4 construct: PHDKDM5B (residues 306–360 aa); GST (N, cleaved yes); made in house
Description: as §1, §2

KDM5B-PHD1-D322A = biological target: T5, KDM5B-PHD1-D322A (Homo sapiens, UniProt Q9UGL1, D322A); experiment: ITC binding, PHD1 D322A mutant; settings: Table S1, pH 7.5, 25°C
T5 construct: PHDKDM5B (residues 306–360 aa); GST (N, cleaved yes); made in house
Description: as §1, §2

KDM5B-PHD1-S333A = biological target: T6, KDM5B-PHD1-S333A (Homo sapiens, UniProt Q9UGL1, S333A); experiment: ITC binding, PHD1 S333A mutant; settings: Table S1, pH 7.5, 25°C
T6 construct: PHDKDM5B (residues 306–360 aa); GST (N, cleaved yes); made in house
Description: as §1, §2

KDM5B-PHD1-V311A = biological target: T7, KDM5B-PHD1-V311A (Homo sapiens, UniProt Q9UGL1, V311A); experiment: ITC binding, PHD1 V311A mutant; settings: Table S1, pH 7.5, 25°C
T7 construct: PHDKDM5B (residues 306–360 aa); GST (N, cleaved yes); made in house
Description: as §1, §2

KDM5B-PHD1-D345A = biological target: T8, KDM5B-PHD1-D345A (Homo sapiens, UniProt Q9UGL1, D345A); experiment: ITC binding, PHD1 D345A mutant; settings: Table S1, pH 7.5, 25°C
T8 construct: PHDKDM5B (residues 306–360 aa); GST (N, cleaved yes); made in house
Description: as §1, §2

KDM5B-PHD1-D332A = biological target: T9, KDM5B-PHD1-D332A (Homo sapiens, UniProt Q9UGL1, D332A); experiment: ITC binding, PHD1 D332A mutant; settings: Table S1, pH 7.5, 25°C
T9 construct: PHDKDM5B (residues 306–360 aa); GST (N, cleaved yes); made in house
Description: as §1, §2

KDM5B-PHD1-W351A = biological target: T10, KDM5B-PHD1-W351A (Homo sapiens, UniProt Q9UGL1, W351A); experiment: ITC binding, PHD1 W351A mutant
T10 construct: PHDKDM5B (residues 306–360 aa); GST (N, cleaved yes); made in house
Description: as §1, §2

T2 sequence (Q9UGL1 306-360 L324A): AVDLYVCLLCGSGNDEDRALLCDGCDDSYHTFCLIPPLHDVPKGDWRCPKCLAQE
T9 sequence (Q9UGL1 306-360 D332A): as the sequence (Q9UGL1 306-360 L324A) above, with A19L, D27A counted along it
T3 sequence (Q9UGL1 306-360 L309A): as the sequence (Q9UGL1 306-360 L324A) above, with L4A, A19L counted along it
T7 sequence (Q9UGL1 306-360 V311A): as the sequence (Q9UGL1 306-360 L324A) above, with V6A, A19L counted along it
T4 sequence (Q9UGL1 306-360 Y334A): as the sequence (Q9UGL1 306-360 L324A) above, with A19L, Y29A counted along it
T10 sequence (Q9UGL1 306-360 W351A): as the sequence (Q9UGL1 306-360 L324A) above, with A19L, W46A counted along it
T8 sequence (Q9UGL1 306-360 D345A): as the sequence (Q9UGL1 306-360 L324A) above, with A19L, D40A counted along it
T1 sequence (Q9UGL1 306-360 L325A): as the sequence (Q9UGL1 306-360 L324A) above, with A19L, L20A counted along it
T5 sequence (Q9UGL1 306-360 D322A): as the sequence (Q9UGL1 306-360 L324A) above, with D17A, A19L counted along it
T6 sequence (Q9UGL1 306-360 S333A): as the sequence (Q9UGL1 306-360 L324A) above, with A19L, S28A counted along it

With `C[C@H](N)C(=O)N[C@@H](CCCNC(=N)N)C(=O)N[C@H](C(=O)N[C@@H](CCCCN)C(=O)N[C@@H](CCC(N)=O)C(=O)N[C@H](C(=O)N[C@@H](C)C(=O)N[C@@H](CCCNC(=N)N)C(=O)N[C@@H](CCCCN)C(=O)N[C@@H](CO)C(=O)O)[C@@H](C)O)[C@@H](C)O` [H3K4me0] the binding affinity (KDM5B-PHD1-L325A) was “non-detectable”, the Kd (KDM5B-PHD1-L324A) was 15.3 ± 0.7 µM and the Kd (KDM5B-PHD1-L309A) was 8.3 ± 0.5 µM. For the same molecule, the Kd (KDM5B-PHD1-Y334A) was 12.6 ± 0.4 µM, the Kd (KDM5B-PHD1-D322A) was 10.7 ± 0.5 µM and the Kd (KDM5B-PHD1-S333A) was 12.9 ± 0.5 µM. It also gave a Kd (KDM5B-PHD1-V311A) of 8.2 ± 0.3 µM, a Kd (KDM5B-PHD1-D345A) of 6.7 ± 0.3 µM and a Kd (KDM5B-PHD1-D332A) of 11.3 ± 0.5 µM. The binding affinity (KDM5B-PHD1-W351A) was “non-detectable”.
